Reference: US20180021361A1, “COMBINATION DRUG TREATMENT FOR HEPATITIS C INFECTION” (JANSSEN PHARMACEUTICALS, INC., priority 2016, published 2018)
“Also recorded” adds a separate entry of the source.

Columns and labels:
OATP1B1 = molecular target: T1, OATP1B1 (Homo sapiens, UniProt Q9Y6L6); details: uptake transporter; cited from earlier work
T1 sequence (Q9Y6L6 1-691): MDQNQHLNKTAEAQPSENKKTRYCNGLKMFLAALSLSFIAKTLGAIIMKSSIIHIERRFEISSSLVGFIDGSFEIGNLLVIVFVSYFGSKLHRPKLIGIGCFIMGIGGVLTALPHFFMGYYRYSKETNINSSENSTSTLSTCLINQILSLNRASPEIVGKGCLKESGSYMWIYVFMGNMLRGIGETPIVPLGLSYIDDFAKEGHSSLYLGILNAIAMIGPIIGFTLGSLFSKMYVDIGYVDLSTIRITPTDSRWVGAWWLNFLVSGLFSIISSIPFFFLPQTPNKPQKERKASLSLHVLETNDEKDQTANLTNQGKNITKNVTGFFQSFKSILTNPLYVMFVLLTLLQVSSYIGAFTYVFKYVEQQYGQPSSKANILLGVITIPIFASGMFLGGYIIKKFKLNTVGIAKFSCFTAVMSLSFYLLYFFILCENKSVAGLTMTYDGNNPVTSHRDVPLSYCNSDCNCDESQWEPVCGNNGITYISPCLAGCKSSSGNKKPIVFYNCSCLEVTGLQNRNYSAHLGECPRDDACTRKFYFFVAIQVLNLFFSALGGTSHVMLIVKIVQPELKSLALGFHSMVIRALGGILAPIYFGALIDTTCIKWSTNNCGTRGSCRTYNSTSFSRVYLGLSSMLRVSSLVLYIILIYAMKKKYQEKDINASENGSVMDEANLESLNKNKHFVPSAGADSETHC

BCRP = molecular target: T2, BCRP (Homo sapiens, UniProt Q9UNQ0); details: efflux transporter; cited from earlier work
T2 sequence (Q9UNQ0 1-655): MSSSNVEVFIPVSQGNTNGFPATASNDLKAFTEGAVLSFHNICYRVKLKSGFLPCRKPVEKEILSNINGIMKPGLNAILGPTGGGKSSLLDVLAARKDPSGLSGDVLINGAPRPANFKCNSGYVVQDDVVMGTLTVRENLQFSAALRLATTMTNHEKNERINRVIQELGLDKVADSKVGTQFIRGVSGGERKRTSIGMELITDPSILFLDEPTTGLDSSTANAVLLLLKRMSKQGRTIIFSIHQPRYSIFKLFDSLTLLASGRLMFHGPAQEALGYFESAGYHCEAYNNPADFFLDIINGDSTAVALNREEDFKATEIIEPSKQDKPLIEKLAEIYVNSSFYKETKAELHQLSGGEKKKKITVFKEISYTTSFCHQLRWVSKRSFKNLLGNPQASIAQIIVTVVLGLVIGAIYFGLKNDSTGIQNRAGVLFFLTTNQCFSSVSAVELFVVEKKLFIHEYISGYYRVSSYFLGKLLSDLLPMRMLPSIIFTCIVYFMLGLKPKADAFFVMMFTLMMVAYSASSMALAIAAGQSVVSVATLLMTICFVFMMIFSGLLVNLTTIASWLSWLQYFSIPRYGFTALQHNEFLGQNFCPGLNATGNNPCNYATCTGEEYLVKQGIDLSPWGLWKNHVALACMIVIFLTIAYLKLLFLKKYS

[1] = Phase-1 drug-drug interaction study, plasma PK in healthy volunteers
Protocol: A drug-drug interaction study (DDI) study is a study designed to investigate whether a drug alters the pharmacokinetics of another drug or drugs or their metabolites.
Compound (III) Subjects received 800 mg of Compound (III) once daily from Days 1-3, Days 11-13, and Days 21-23. PK blood samples for determination of Compound (III) and metabolite concentrations were collected in reference to the Day 3, Day 13, and Day 23 doses.
Simeprevir—Subjects received 150 mg of Simeprevir (SMV) once daily from Days 4-23. PK blood samples for determination of SMV concentrations were collected in reference to the Day 10, Day 13, Day 20, and Day 23 doses.
Odalasvir—Subjects received a loading dose of 150 mg on Day 14, and 50 mg of Odalasvir once daily from Days 15-23. PK blood samples for determination of Odalasvir concentrations were collected in reference to the Day 20 and Day 23 doses.
Compound (III)—Subjects received 800 mg of Compound (III) once daily from Days 1-3, Days 11-13 and Days 21-23. PK blood samples for determination of Compound (III) and metabolite concentrations were collected in reference to the Day 3, Day 13, and Day 23 doses.
Simeprevir—Subjects receive 150 mg of SMV once daily from Days 4-23. PK blood samples for determination of SMV concentrations were collected in reference to the Day 20 and Day 23 doses.
Odalasvir—Subjects receive a loading dose of 150 mg on Day 4, and 50 mg of Odalasvir once daily from Days 5-23. PK blood samples for determination of Odalasvir concentrations were collected in reference to the Day 10, Day 13, Day 20, and Day 23 doses.
A primary objective was to evaluate the effect of multiple oral doses of Odalasvir (alone), Simeprevir (alone), and Odalasvir and Simeprevir on the multiple oral dose PK of Compound (III) (and certain metabolites thereof, such as the major metabolites in systemic circulation) in healthy volunteers. Other objectives were to evaluate the safety and tolerability of multiple oral doses of Compound (III) when administered alone and in combination with single and multiple oral doses of Odalasvir and/or Simeprevir in healthy volunteers; to determine the potential effect of Compound of Compound (III) and/or Odalasvir on the steady-state PK of Simeprevir in healthy volunteers; to determine the potential effect of Compound of Compound (III) and/or Simeprevir on the steady state PK of Odalasvir in healthy volunteers.
Various other PK parameters were estimated including: […], t1/2, Tmax, Tlast, CL/F, Vz/F, and λz.
Odalasvir: 150 mg loading dose; 50 mg for the remainder of the study period.

| SMILES | in vitro inhibition of OATP1B1 (OATP1B1) | in vitro inhibition of BCRP (BCRP) | exposure increase caused by SMV ([1]; DDI study results) [×] | exposure increase, effect of the three Compounds ([1]; DDI study results) [×] | increase of exposure with the combination of the three drugs ([1]; human in vivo study) [times] | effect of Compound (III) on exposure / bioavailability ([1]; human subjects) | exposure increase caused by Odalasvir ([1]; DDI study results) [×] | increase of exposure with the combination of the three drugs ([1]; both, human, in vivo) | bioavailability of Compound (III) when SMV and ODV are co-administered, compared to Compound (III) alone ([1]; human subjects) |
| --- | --- | --- | --- | --- | --- | --- | --- | --- | --- |
| COC(=O)N[C@H](C(=O)N1[C@H](c2nc3cc(-c4cc5ccc4CCc4ccc(c(-c6ccc7[nH]c([C@@H]8C[C@@H]9CCCC[C@@H]9N8C(=O)[C@@H](NC(=O)OC)C(C)C)nc7c6)c4)CC5)ccc3[nH]2)C[C@@H]2CCCC[C@@H]21)C(C)C [ODV, methyl [(2S)-1-[(2S,3aS,7aS)-2-[6-[11-[2-[(2S,3aS,7aS)-1-[(2S)-2-[(methoxycarbonyl)amino]-3-methylbutanoyl]octahydro-1H-indol-2-yl]-1H-benzimidazol-6-yl]tricyclo[8.2.2.2^4,7]hexadeca-1(12),4,6,10,13,15-hexaen-5-yl]-1H-benzimidazol-2-yl]octahydro-1H-indol-1-yl]-3-methyl-1-oxobutan-2-yl]carbamate] | no inhibition | no inhibition | 1.6 | 1.5 | 1.5 | no apparent effect; also recorded: does not alter |  |  |  |
| CC(C)OC(=O)C(C)N[P@](=O)(OC[C@@]1(F)O[C@@H](n2ccc(=O)[nH]c2=O)[C@](C)(O)[C@@H]1O)Oc1ccccc1 (stereo in doubt) [Compound (III)] | no in vitro inhibition | no in vitro inhibition | 3 |  |  |  | 4 | 7-8 times | approximately 8 fold |
